Tests used:
32D cl 3 cells [1] = test: Clonogenic radiation survival curves of 32D cl 3 cells (PLDR study); format: cell-based, mouse; design: key to D0: D0 in Gy, from single-hit multitarget model
Method: (§1) 32D cl 3 cells were resuspended at 1×10^5 cells/mL in 10×100-mm tubes and divided into three groups: radiation only, post-irradiation treatment with 10 μM JP4-039, and post-irradiation treatment with 10 μM TEMPO. Cells were irradiated to doses ranging from 0 to 8 Gy and were plated immediately after irradiation.
as §1, with “5×10^5” for “1×10^5”, “then incubated in exponentially growing colonies (flasks) for 24, 48 and 72 h in a high-humidity incubator at 37° C. with 95% air/5% CO2.” for “plated immediately after irradiation.”
32D cl 3 cells were resuspended at 5×10^5 cells/mL in 10×100-mm tubes. Cells were irradiated to doses ranging from 0 to 8 Gy and were then centrifuged at 1500 RPM for 10 minutes and incubated in vertical tubes held tight in pellets with a total of 5×10^5 cells/pellet for 24, 48 and 72 h in a high-humidity incubator at 37° C. with 95% air/5% CO2.
Cells incubated under either logarithmic or PLDR conditions were resuspended at 24, 48 and 72 h after irradiation, and cell viability was assessed using an automated cell viability counter (Beckman Coulter, Fullerton, Calif.). Subsequently, at 24, 48, 72 h, cells in pellets and flasks were resuspended and treated with 10 μM JP4-039, 10 μM TEMPO, or no treatment and were plated in triplicate in semisolid methylcellulose-containing medium at viable cell concentrations ranging from 500-40,000 cells/mL. Cells were incubated in a high-humidity incubator at 37° C. with 95% air/5% CO2 for 7 d and colonies of greater than 50 cells were scored according to published methods (Epperly M W, Gretton J E, Sikora C A, Jefferson M, Bernarding M, Nie S, et al.: Mitochondrial localization of superoxide, dismutase is required for decreasing radiation-induced cellular damage. Radiat Res. 160: 568-578, 2003).
Data from radiation survival curves were analyzed using the linear-quadratic and single-hit, multitarget models (Epperly M, et al., Prevention of late effects of irradiation lung damage by manganese superoxide dismutase gene therapy. Gene Ther. 5: 196-208, 1998). Results are presented as the mean±standard error of the mean from at least three measurements. Student's t test and two-way ANOVA were used to compare means of different groups where appropriate.

Ercc1−/Δ mice = conditions: parental compound, comparison statement; cited from earlier work
32D cl 3 cells [2] = test: EPR-based analysis of nitroxide distribution and partitioning in subcellular fractions; format: cell-based, mouse; conditions: flask or pelleted, 10 μM, 1 h
Method: To determine nitroxide partitioning and distribution in subcellular compartments, electron paramagnetic resonance (EPR) was utilized. 32D cl 3 cells were incubated for 24 h under pelleted or flask growth conditions. After incubation, 150×10^6 cells were resuspended at a concentration of 10×10^6 cells/mL and were treated with 10 μM JP4-039 or 10 μM TEMPO for 1 h (Wipf P, et al., Mitochondrial targeting of selective electron scavengers: synthesis and biological analysis of hemigramicidin-TEMPO conjugates. J Am Chem. Soc. 127: 12460-12461, 2005).
Subcellular compartments were isolated by differential centrifugation. Cells were centrifuged at 1500 RPM for 10 min and the supernatant (media) was removed. The remaining whole cell pellet was washed with cold PBS, resuspended in 0.3 mL of hypotonic buffer solution, and incubated on ice for 45 min. Cells were then lysed by three rapid freeze-thaw cycles in liquid nitrogen for 30 sec and water at 25° C. for 3 min. Lysed cells were centrifuged at 3000×g for 5 min to isolate nucleus and cellular debris. Supernatant was centrifuged at 12000×g for 45 min to isolate mitochondria from cytoplasm (Wipf P, et al., Mitochondrial targeting of selective electron scavengers: synthesis and biological analysis of hemigramicidin-TEMPO conjugates. J Am Chem. Soc. 127: 12460-12461, 2005).
Each cellular fraction (media, whole cell pellet, nucleus/cellular debris, mitochondria, and cytoplasm) was mixed with DMSO (1:1 vol/vol) and 2 mM of potassium ferricyanide (K3Fe(CN)6) to convert […] to EPR-detectable radical forms (Behringer W, et al., Antioxidant Tempol enhances hypothermic cerebral preservation during prolonged cardiac arrest in dogs. J Cereb Blood Flow Metab. 22: 105-117, 2002). 70 μL of the homogenate was loaded into Teflon tubing (0.8 mm internal diameter) (Alpha Wire Corp., Elizabeth, N.J.) which was folded in half and placed into an open ESR quartz tube (inner diameter of 3.0 mm). EPR measurements were made in triplicate using a JEOL-RE1X EPR spectrometer (Jeol, Tokyo, Japan) under the following conditions: 334.7 mT center field, 5 mT sweep width, 0.079 mT field modulation, 20 mW microwave power, 0.1 sec time constant, and 2 min scan time at 22.5° C. Utilizing signal magnitude and isolated volumes, amount and concentration of JP4-039 or TEMPO were calculated for each sample.

[3] = 0 hours, 10 μM post-irradiation

CC1(C)CCCC(C)(C)N1[O] [TEMPO, 2,2,6,6-tetramethylpiperidine-N-oxyl, reference compound]
D0 (32D cl 3 cells [1]; [3]): 1.04 ± 0.07
Ñ (32D cl 3 cells [1]; [3]): 8.23±4.35
radiation mitigation (32D cl 3 cells [1]; 48 or 72 h after irradiation): no statistically significant radiation mitigation
D0 (32D cl 3 cells [1]; 24 hours (Flask), 10 μM): 1.26 ± 0.11
Ñ (32D cl 3 cells [1]; 24 hours (Flask), 10 μM): 8.86 ± 6.69
D0 (32D cl 3 cells [1]; 24 hours (Pellet), 10 μM): 1.13 ± 0.19
Ñ (32D cl 3 cells [1]; 24 hours (Pellet), 10 μM): 7.59±1.71
body weight (Ercc1−/Δ mice): cause weight loss
nitroxide signal in whole cell pellet and subcellular fractions (32D cl 3 cells [2]): below the detectable threshold
